# Experimental data reported in ChEMBL document CHEMBL3885861, “Open TG-GATES”.
# Species on record: Rattus norvegicus
# Assay: Open TG-GATES - Regimen: Single
# Format: toxicity, organism-based, Sprague-Dawley
# Parameters: regimen Single, gender Male, age 6 weeks
# Details: in vivo, po, 0 mg/kg, route gavage, dose level Control; for APTT / Bas / Eos / Fbg / Ht / Lym / MCH / MCHC / MCV / Mono / Neu / PT / Plat / RBC / Ret / WBC: tissue Blood; for KIDNEY_L / KIDNEY_R / KIDNEY_TOTAL: tissue Kidney; for LIVER: tissue Liver; for ALP / ALT / AST / BUN / CRE / Ca / Cl / DBIL / GLC / IP / K / LDH / Na / PL / RALB / TBIL / TC / TG / TP / gamma-GTP: tissue Plasma
compound,measurement,setting,value
Cc1cccc(Nc2cc(Cl)nc(SCC(=O)O)n2)c1C [PIRINIXIC ACID],TERMINAL_BW,3 h,202.9 g
same,APTT,3 h,15.1 s
same,Bas,3 h,0%
same,Eos,3 h,0.4%
same,Fbg,3 h,280 mg/dL
same,Ht,3 h,40.2%
same,Lym,3 h,77.6%
same,MCH,3 h,21.5 pg
same,MCHC,3 h,33.9%
same,MCV,3 h,63.3 fL
same,Mono,3 h,2.6%
same,Neu,3 h,18%
same,PT,3 h,12.3 s
same,Plat,3 h,115.3 x10_4/uL
same,RBC,3 h,636.6 x10_4/ul
same,Ret,3 h,7.4%
same,WBC,3 h,78.3 x10_2/uL
same,KIDNEY_L,3 h,0.9 g
same,KIDNEY_R,3 h,0.8 g
same,KIDNEY_TOTAL,3 h,1.7 g
same,LIVER,3 h,8.6 g
same,ALP,3 h,1509.2 IU/L
same,ALT,3 h,48.6 IU/L
same,AST,3 h,77.6 IU/L
same,BUN,3 h,11 mg/dL
same,CRE,3 h,0.2 mg/dL
same,Ca,3 h,10.9 mg/dL
same,Cl,3 h,104.8 meq/L
same,DBIL,3 h,0.036 mg/dL
same,GLC,3 h,183.6 mg/dL
same,IP,3 h,10.5 mg/dL
same,K,3 h,3.8 meq/L
same,LDH,3 h,91.6 IU/L
same,Na,3 h,140 meq/L
same,PL,3 h,166.4 mg/dL
same,RALB,3 h,2.6 g/dL
same,TBIL,3 h,0.046 mg/dL
same,TC,3 h,82.8 mg/dL
same,TG,3 h,121 mg/dL
same,TP,3 h,5.6 g/dL
same,gamma-GTP,3 h,1.2 IU/L
same,TERMINAL_BW,6 h,201.9 g
same,APTT,6 h,17.1 s
same,Bas,6 h,0%
same,Eos,6 h,0.6%
same,Fbg,6 h,283.8 mg/dL
same,Ht,6 h,40.4%
same,Lym,6 h,73.4%
same,MCH,6 h,22 pg
same,MCHC,6 h,34.3%
same,MCV,6 h,64 fL
same,Mono,6 h,2.2%
same,Neu,6 h,22.8%
same,PT,6 h,12.2 s
same,Plat,6 h,115 x10_4/uL
same,RBC,6 h,630.8 x10_4/ul
same,Ret,6 h,7.6%
same,WBC,6 h,95.9 x10_2/uL
same,KIDNEY_L,6 h,0.8 g
same,KIDNEY_R,6 h,0.8 g
same,KIDNEY_TOTAL,6 h,1.7 g
same,LIVER,6 h,8 g
same,ALP,6 h,1969 IU/L
same,ALT,6 h,37.8 IU/L
same,AST,6 h,74.4 IU/L
same,BUN,6 h,10.2 mg/dL
same,CRE,6 h,0.2 mg/dL
same,Ca,6 h,10.7 mg/dL
same,Cl,6 h,106.2 meq/L
same,DBIL,6 h,0.026 mg/dL
same,GLC,6 h,185.8 mg/dL
same,IP,6 h,10.3 mg/dL
same,K,6 h,4.1 meq/L
same,LDH,6 h,69.2 IU/L
same,Na,6 h,139.8 meq/L
same,PL,6 h,145 mg/dL
same,RALB,6 h,2.5 g/dL
same,TBIL,6 h,0.046 mg/dL
same,TC,6 h,75.8 mg/dL
same,TG,6 h,78 mg/dL
same,TP,6 h,5.4 g/dL
same,gamma-GTP,6 h,1.2 IU/L
same,TERMINAL_BW,9 h,205.2 g
same,APTT,9 h,15.9 s
same,Bas,9 h,0%
same,Eos,9 h,0.8%
same,Fbg,9 h,268 mg/dL
same,Ht,9 h,39.5%
same,Lym,9 h,74.6%
same,MCH,9 h,21.3 pg
same,MCHC,9 h,34.1%
same,MCV,9 h,62.4 fL
same,Mono,9 h,2.6%
same,Neu,9 h,21.6%
same,PT,9 h,12.4 s
same,Plat,9 h,117.6 x10_4/uL
same,RBC,9 h,632.8 x10_4/ul
same,Ret,9 h,7.6%
same,WBC,9 h,69.1 x10_2/uL
same,KIDNEY_L,9 h,0.9 g
same,KIDNEY_R,9 h,0.9 g
same,KIDNEY_TOTAL,9 h,1.7 g
same,LIVER,9 h,7.9 g
same,ALP,9 h,1428 IU/L
same,ALT,9 h,34.8 IU/L
same,AST,9 h,67.4 IU/L
same,BUN,9 h,10.6 mg/dL
same,CRE,9 h,0.2 mg/dL
same,Ca,9 h,10.6 mg/dL
same,Cl,9 h,103.6 meq/L
same,DBIL,9 h,0.02 mg/dL
same,GLC,9 h,189 mg/dL
same,IP,9 h,10.7 mg/dL
same,K,9 h,3.6 meq/L
same,LDH,9 h,52.8 IU/L
same,Na,9 h,140.8 meq/L
same,PL,9 h,146 mg/dL
same,RALB,9 h,2.5 g/dL
same,TBIL,9 h,0.038 mg/dL
same,TC,9 h,80.2 mg/dL
same,TG,9 h,53.6 mg/dL
same,TP,9 h,5.2 g/dL
same,gamma-GTP,9 h,1 IU/L
same,TERMINAL_BW,24 h,212.4 g
same,APTT,24 h,16.5 s
same,Bas,24 h,0%
same,Eos,24 h,1%
same,Fbg,24 h,285.8 mg/dL
same,Ht,24 h,38.8%
same,Lym,24 h,73.8%
same,MCH,24 h,21.6 pg
same,MCHC,24 h,34.2%
same,MCV,24 h,63.2 fL
same,Mono,24 h,3%
same,Neu,24 h,21.8%
same,PT,24 h,12.2 s
same,Plat,24 h,112.5 x10_4/uL
same,RBC,24 h,614 x10_4/ul
same,Ret,24 h,7.3%
same,WBC,24 h,80.5 x10_2/uL
same,KIDNEY_L,24 h,0.9 g
same,KIDNEY_R,24 h,0.9 g
same,KIDNEY_TOTAL,24 h,1.9 g
same,LIVER,24 h,9.7 g
same,ALP,24 h,1823.2 IU/L
same,ALT,24 h,42.8 IU/L
same,AST,24 h,71.4 IU/L
same,BUN,24 h,14.8 mg/dL
same,CRE,24 h,0.2 mg/dL
same,Ca,24 h,11 mg/dL
same,Cl,24 h,104.6 meq/L
same,DBIL,24 h,0.02 mg/dL
same,GLC,24 h,179.8 mg/dL
same,IP,24 h,8.4 mg/dL
same,K,24 h,4 meq/L
same,LDH,24 h,61 IU/L
same,Na,24 h,142.6 meq/L
same,PL,24 h,147 mg/dL
same,RALB,24 h,2.6 g/dL
same,TBIL,24 h,0.032 mg/dL
same,TC,24 h,79.8 mg/dL
same,TG,24 h,71.6 mg/dL
same,TP,24 h,5.5 g/dL
